In brackets after ≈: the same amount, converted by molar mass. Several values for one entry are separate records, joined by “and”; a condition that tells them apart may be missing. Equal entries are not always repeated. Where two headings read alike, the source gives them in different places.
What was measured:
Influenza viruses = details: cited from earlier work
Influenza A/NWS/33 virus [1] = details: i.p. once daily for 8 days
[2] = test system: Respiratory syncytial virus (RSV); experiment: microbe, parasite or virus in culture; assay type: cell-based; details: human respiratory syncytial virus
RSV A2 [3] = experiment: RSV infection of cotton rats, oral dosing, lung titer; assay type: in vivo, Hispid Cotton Rats; details: for ED50: human respiratory syncytial virus, 72 h, 3-day oral dosing
Experimental: (§1) Tissue control wells contained medium, but no virus. […] Virus control wells were observed daily. […] In addition to visual CPE, inhibition of syncytia formation is used to confirm activity against RSV. Lung RSV titer logm was calculated as described by Dubovi et al., 1983; 1984.
All animals were killed on day 5 and lung tissues were collected. Lungs were removed and washed via transpleural lavage. The fluid collected was assessed for RSV titer in a microtiter assay using HEp2 cells as described above.

RSV A2 [4] = experiment: RSV infection of cotton rats, intraperitoneal dosing, lung titer; assay type: in vivo, Hispid Cotton Rats; details: for % kill: versus control; for ED50: 3-day intraperitoneal dosing
Experimental: Control animals received an equal volume of distilled water. […] All animals were killed on day 5. Lungs were removed and washed via transpleural lavage. The fluid collected was assessed for RSV titer in a microtiter assay using HEp2 cells.
as §1

PIV-1 = experiment: In vitro antiviral assay, inhibition of CPE, PIV-1
Influenza B = experiment: microbe, parasite or virus in culture; assay type: cell-based; details: for ED50: FLU-B; for EC50: Influenza B virus
Influenza A/NWS/33 virus [5] = details: for influenza inhibition (words): 75 mg/kg/day i.p.
Parainfluenza virus 3 = experiment: microbe, parasite or virus in culture; assay type: cell-based
Measles = experiment: In vitro antiviral assay, inhibition of CPE, measles; assay type: cell-based, Measles virus; details: Measles morbillivirus, HEp-2, HEp2 cells, Table 1 experiments 1-2, read-out: ED50 (the source's name)
Adenovirus 5 = experiment: In vitro antiviral assay, inhibition of CPE, adenovirus 5; assay type: cell-based; details: Human mastadenovirus C, HEp-2, HEp2 cells, Table 1 experiment 2, read-out: ED50 (the source's name)
[6] = Table 16; 75 mg/kg/day i.p. bid × 5; female
Influenza A = experiment: microbe, parasite or virus in culture; assay type: cell-based; details: for EC50: Influenza A virus
Adenovirus 7 = experiment: In vitro antiviral assay, inhibition of CPE, adenovirus 7; assay type: cell-based; details: Human mastadenovirus B, HEp-2, HEp2 cells, Table 1 experiments 2-3, read-out: ED50 (the source's name)
RSV or influenza virus = details: cited from earlier work
[7] = test system: RNA-directed DNA polymerase; details: Sethi, 1977; cited from earlier work
[8] = Persinos et al., 1979; cited from earlier work
[9] = 75 mg/kg/day i.p. bid × 5, days 2, 4, 6, 8
[10] = 75 mg/kg/day i.p. bid × 5 from 4 hr post-virus, female

## Cl.NC12CC3CC(CC(C3)C1)C2 [Amantadine, 1-Adamantanamine HCL]
Influenza viruses
  central nervous system side effects: causes some central nervous system side effects
  shortening of fever duration and respiratory symptoms: about 50%
Influenza A/NWS/33 virus [1]
  inhibition of influenza A infection (overall words): ineffective

## NC(=O)c1ncn([C@@H]2O[C@H](CO)[C@@H](O)[C@H]2O)n1 [Ribavirin, 1-β-D-ribofuranosyl-1,2,4-triazole 3-carboxamide]
[2]; HEp-2, RSV B-46791, read-out: ED50 (the source's name)
  EC50: 8 µg/mL (≈ 32.8 µM)
[2]; HEp-2, RSV B-47063, read-out: ED50 (the source's name)
  EC50: 12 µg/mL (≈ 49.1 µM)
[2]; HEp-2, RSV, mean of all strains, read-out: ED50, MEAN
  EC50: 11.9 µg/mL (≈ 48.7 µM)
RSV A2 [3]; 40 mg/kg oral
  Lung titer (RSV titer log 10/g lung, Mean ± S.D.): 3.30 ± 0.5 log 10 /g lung
  Lung titer (antilog, in parentheses): 1,995
  reduction in lung titers: > 90%
RSV A2 [3]; 40 mg/kg oral, versus control
  % kill: 80%
RSV A2 [3]; individual experiments, read-out: ED50
  ED50: > 90 mg/kg
RSV A2 [3]; mean, read-out: ED50, Mean ± SEM
  ED50: > 90 mg/kg
RSV A2 [4]; 10 mg/kg i.p.
  Lung titer (RSV titer log 10/g lung, Mean ± S.D.): 4.5 ± 0.2 log 10 /g lung
  Lung titer (antilog, in parentheses): 31,622
  % kill: 0%
RSV A2 [4]; 30 mg/kg i.p.
  Lung titer (RSV titer log 10/g lung, Mean ± S.D.): 4.0 ± 0.3 log 10 /g lung
  Lung titer (antilog, in parentheses): 10,000
  % kill: 68.4%
RSV A2 [4]; 40 mg/kg i.p.
  reduction in lung titers: 50%
RSV A2 [4]; 90 mg/kg i.p.
  Lung titer (RSV titer log 10/g lung, Mean ± S.D.): 2.8 ± 0.3 log 10 /g lung
  Lung titer (antilog, in parentheses): 631
  % kill: 98%
RSV A2 [4]; individual experiments
  ED50: 30 mg/kg and 50 mg/kg
RSV A2 [4]; human respiratory syncytial virus, ip, 72 h, individual experiments, read-out: ED50
  ED50: 40 mg/kg
RSV A2 [4]; human respiratory syncytial virus, ip, 72 h, mean, read-out: ED50, Mean ± S.E.M.
  ED50: 40 ± 6 mg/kg
PIV-1; HEp-2, read-out: ED50, MEAN, PIV-1, mean
  EC50: 10.7 µg/mL (≈ 43.8 µM)
PIV-1; HEp-2, read-out: ED50, PIV-1
  EC50: 12 µg/mL (≈ 49.1 µM)
PIV-1; PIV-1
  ED50: 8.0 µg/mL (≈ 32.8 µM)
Influenza B; B-USSR
  ED50: 7.8 µg/mL (≈ 31.9 µM)
Influenza B; B-Yamagata
  ED50: 8.0 µg/mL (≈ 32.8 µM)
Influenza B; HEp-2, FLU-B, B-HongKong, read-out: ED50 (the source's name)
  EC50: 1 µg/mL (≈ 4.09 µM)
Influenza B; HEp-2, FLU-B, B-USSR, read-out: ED50 (the source's name)
  EC50: 4 µg/mL (≈ 16.4 µM)
Influenza B; HEp-2, FLU-B, B-Yamagata, read-out: ED50 (the source's name)
  EC50: 6 µg/mL (≈ 24.6 µM)
Influenza B; HEp-2, FLU-B, mean of all strains, read-out: ED50, MEAN
  EC50: 5.8 µg/mL (≈ 23.8 µM)
Influenza B; HEp-2, Influenza B, HEp2 cells, Table 1 experiments 1-2, read-out: ED50 (the source's name)
  EC50: 18 µg/mL (≈ 73.7 µM)
Influenza A/NWS/33 virus [5]
  influenza inhibition (words): inhibitory to the virus infection
Influenza A/NWS/33 virus [5]; 75 mg/kg/day i.p. bid × 5, daily for 10 days
  Mean SaO2 %: 81%
Influenza A/NWS/33 virus [5]; [9]
  Mean Score (lung): 0.3
  Mean Virus Titer (log10): 3.9 log10
Influenza A/NWS/33 virus [5]; [10]
  Infected, Treated Surv/Total: 10/10
  MST: > 21.0 days
Influenza A/NWS/33 virus [5]; 75 mg/kg/day i.p. bid × 5 from 4 hr post-virus, female, listed as ribavirin
  Infected, Treated Surv/Total: All infected, ribavirin-treated mice survived the infection
Influenza A/NWS/33 virus [5]; listed as ribavirin
  influenza inhibition (words): significant influenza inhibition
Parainfluenza virus 3; HEp-2, PIV-3, mean, read-out: ED50, MEAN
  EC50: 15.4 µg/mL (≈ 63.1 µM)
Parainfluenza virus 3; HEp-2, Parainfluenza virus (3), HEp2 cells, Table 1 experiments 1-3, read-out: ED50 (the source's name)
  EC50: 15.6 µg/mL (≈ 63.9 µM)
Parainfluenza virus 3; PIV-3
  ED50: 16.0 µg/mL (≈ 65.5 µM)
Parainfluenza virus 3; Parainfluenza virus (3), HEp2 cells, Table 1 experiments 1-3
  ED50: 15.7 µg/mL and 12 µg/mL
In vitro; ID50, FLU-A, B-Japan experiment
  CC50: 78 µg/mL (≈ 319 µM)
In vitro; ID50, FLU-A, B-NWS/33 experiment
  CC50: 100 µg/mL (≈ 409 µM)
In vitro; ID50, FLU-A, B-Portchalm experiment
  CC50: 68 µg/mL (≈ 278 µM)
In vitro; ID50, FLU-B, B-HongKong experiment
  CC50: 80 µg/mL (≈ 328 µM)
In vitro; ID50, MEAN, FLU-A experiments, mean
  CC50: 750 µg/mL (≈ 3070 µM)
In vitro; ID50, MEAN, FLU-B experiments, mean
  CC50: 847 µg/mL (≈ 3470 µM)
In vitro; ID50, MEAN, RSV experiments, mean
  CC50: 946 µg/mL (≈ 3870 µM)
In vitro; ID50, PIV-1 experiment
  CC50: 1000 µg/mL (≈ 4090 µM)
In vitro; ID50, PIV-3 experiment
  CC50: 1000 µg/mL (≈ 4090 µM)
In vitro; ID50, RSV A-Tracy experiment
  CC50: 1000 µg/mL (≈ 4090 µM)
In vitro; ID50, RSV B-18537 experiment
  CC50: 1000 µg/mL (≈ 4090 µM)
In vitro; ID50, RSV B-46791 experiment
  CC50: 1000 µg/mL (≈ 4090 µM)
In vitro; ID50, RSV B-47063 experiment
  CC50: 1000 µg/mL (≈ 4090 µM)
Measles
  EC50: 31.3 µg/mL (≈ 128 µM)
Adenovirus 5
  EC50: > 1000 µg/mL
[6]
  Host Wt. Change: 0.6 g
  Toxicity controls Surv/Total: 5/5
Influenza A; HEp-2, FLU-A, A-Leningrad, read-out: ED50 (the source's name)
  EC50: 6 µg/mL (≈ 24.6 µM)
Influenza A; HEp-2, FLU-A, A-Shanghai, read-out: ED50 (the source's name)
  EC50: 6 µg/mL (≈ 24.6 µM)
Influenza A; HEp-2, FLU-A, B-Japan, read-out: ED50 (the source's name)
  EC50: 1.6 µg/mL (≈ 6.55 µM)
Influenza A; HEp-2, FLU-A, B-NWS/33, read-out: ED50 (the source's name)
  EC50: 1 µg/mL (≈ 4.09 µM)
Influenza A; HEp-2, FLU-A, B-Portchalm, read-out: ED50 (the source's name)
  EC50: 1 µg/mL (≈ 4.09 µM)
Influenza A; HEp-2, FLU-A, mean of all strains, read-out: ED50, MEAN
  EC50: 8.2 µg/mL (≈ 33.6 µM)
Influenza A; HEp-2, Influenza A, HEp2 cells, Table 1 experiments 1-3, read-out: ED50 (the source's name)
  EC50: 15 µg/mL (≈ 61.4 µM)
Influenza A; Influenza A, HEp2 cells, Table 1 experiments 1-3
  ED50: 14.3 µg/mL and 14 µg/mL
Adenovirus 7
  EC50: > 1000 µg/mL
RSV or influenza virus; acute respiratory infections
  severity of illness and amount of virus shed: reduce the severity of illness and amount of virus shed
RSV or influenza virus; in animals
  teratogenicity: teratogenic in animals

## COc1ccc2c(=O)oc3c(OC)cc(CCN(C)C)c4c(=O)oc1c2c34 [taspine]
[7]
  RNA-directed DNA polymerase activity: inhibit RNA-directed DNA polymerase activity
[8]
  anti-inflammatory activity: exhibits anti-inflammatory activity

Reference: patent US5211944A, “Proanthocyanidin polymers having antiviral activity and methods of obtaining same” (Shaman Pharmaceuticals, Inc., priority 1991, dated 1993)
